According to patent US12473304B2, “Heterocyclic PAD4 inhibitors” (BRISTOL-MYERS SQUIBB COMPANY, priority 2020, dated 2025):

Target: human PAD4 (hPAD4) (Homo sapiens (Human), UniProt Q9UM07)
Test: RFMS Human PAD4 Functional Assay 1
Assay type: biochemical
Details: RFMS assay 1; 5 nM hPAD4, 250 μM BAEE substrate, 50 μM calcium, 37° C.
Summary of the method: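 Recombinant hPAD4 (5 nM) was preincubated with compound (top 50 μM, 0.5% DMSO) for 30 min at 37 °C, then reacted with 250 μM BAEE for 90 min at 37 °C in pH 7.5 HEPES buffer with 50 μM calcium and 5 μM TPEN. Product was derivatized with phenyl glyoxal and quantified by RapidFire MS.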

human PAD4 (hPAD4), sequence (Q9UM07 whole entry): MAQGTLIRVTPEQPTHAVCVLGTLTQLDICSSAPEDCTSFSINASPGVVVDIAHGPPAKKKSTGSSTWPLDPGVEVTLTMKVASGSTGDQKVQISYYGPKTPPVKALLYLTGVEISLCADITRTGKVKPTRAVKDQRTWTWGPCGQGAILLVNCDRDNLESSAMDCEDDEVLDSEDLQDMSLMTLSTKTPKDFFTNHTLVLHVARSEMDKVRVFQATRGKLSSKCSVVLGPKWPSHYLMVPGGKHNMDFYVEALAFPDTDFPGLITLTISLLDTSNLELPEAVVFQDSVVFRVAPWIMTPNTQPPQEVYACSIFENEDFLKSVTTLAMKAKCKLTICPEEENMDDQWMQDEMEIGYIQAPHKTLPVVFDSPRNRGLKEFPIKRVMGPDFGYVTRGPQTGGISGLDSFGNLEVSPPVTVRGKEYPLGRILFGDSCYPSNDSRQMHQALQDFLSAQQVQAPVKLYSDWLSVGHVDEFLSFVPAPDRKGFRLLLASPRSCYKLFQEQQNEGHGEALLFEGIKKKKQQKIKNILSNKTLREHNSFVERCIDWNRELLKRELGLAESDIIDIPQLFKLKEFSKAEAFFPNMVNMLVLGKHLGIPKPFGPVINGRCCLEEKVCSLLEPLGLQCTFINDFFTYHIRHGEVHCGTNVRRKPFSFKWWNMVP

Row | Compound | IC50 [nM]
1 | COc1cc(C(=O)N2CCC[C@@H](N)C2)cn2nc(-c3cc4ccc(N5CCC(N(C)C(C)=O)CC5)cc4n3CC3CC3)c(C)c12 [Example 252, N-[1-(2-{6-[(3R)-3-Aminopiperidine-1-carbonyl]-4-methoxy-3-methylpyrazolo[1,5-a]pyridin-2-yl}-1-(cyclopropylmethyl)-1H-indol-6-yl)piperidin-4-yl]-N-methylacetamide] | 790
2 | COc1cc(C(=O)N2CCC[C@@H](N)C2)cn2nc(-c3cc4ccc(N5CCC(N(C)C(C)=O)CC5)cc4n3CC3CC3)c(C)c12 [Example 253, N-[1-(2-{6-[(3R)-3-Aminopiperidine-1-carbonyl]-4-methoxy-3-methylpyrazolo[1,5-a]pyridin-2-yl}-1-(cyclopropylmethyl)-1H-indol-6-yl)piperidin-4-yl]-N-methylacetamide] | 290
3 | COc1cc(C(=O)N2CCC[C@@H](N)C2)cn2nc(-c3cc4ccc(N5CCC(N(C)S(C)(=O)=O)CC5)cc4n3CC3CC3)c(C)c12 [Example 254, N-[1-(2-{6-[(3R)-3-Aminopiperidine-1-carbonyl]-4-methoxy-3-methylpyrazolo[1,5-a]pyridin-2-yl}-1-(cyclopropylmethyl)-1H-indol-6-yl)piperidin-4-yl]-N-methylmethanesulfonamide] | 320
4 | COC(=O)N(C)C1CCN(c2ccc3cc(-c4nn5cc(C(=O)N6CCC[C@@H](N)C6)cc(OC)c5c4C)n(CC4CC4)c3c2)CC1 [Example 255, Methyl N-[1-(2-{6-[(3R)-3-aminopiperidine-1-carbonyl]-4-methoxy-3-methylpyrazolo[1,5-a]pyridin-2-yl}-1-(cyclopropylmethyl)-1H-indol-6-yl)piperidin-4-yl]-N-methylcarbamate] | 250
5 | COc1cc(C(=O)N2CCC[C@@H](N)C2)cn2nc(-c3cc4ccc(N5CC(N(C)S(C)(=O)=O)C5)cc4n3CC3CC3)c(C)c12 [Example 256, N-[1-(2-{6-[(3R)-3-Aminopiperidine-1-carbonyl]-4-methoxy-3-methylpyrazolo[1,5-a]pyridin-2-yl}-1-(cyclopropylmethyl)-1H-indol-6-yl)azetidin-3-yl]-N-methylmethanesulfonamide] | 330
6 | Cc1c(-c2cc3ccc(-c4ccc(N5CCCC5=O)cc4)nc3n2CC2CC2)nn2cc(C(=O)N3CC4CCC3[C@@H]4N)cc(F)c12 (stereo partly drawn) [Example 258, 1-[4-(2-{6-[(7R)-7-Amino-2-azabicyclo[2.2.1]heptane-2-carbonyl]-4-fluoro-3-methylpyrazolo[1,5-a]pyridin-2-yl}-1-(cyclopropylmethyl)-1H-pyrrolo[2,3-b]pyridin-6-yl)phenyl]pyrrolidin-2-one] | 220
7 | Cc1cc(C(N)=O)c(F)cc1-c1ccc2cc(-c3nn4cc(C(=O)N5CC6CCC5[C@@H]6N)cc(F)c4c3C)n(CC3CC3)c2n1 (stereo partly drawn) [Example 260, 4-(2-{6-[(7R)-7-Amino-2-azabicyclo[2.2.1]heptane-2-carbonyl]-4-fluoro-3-methylpyrazolo[1,5-a]pyridin-2-yl}-1-(cyclopropylmethyl)-1H-pyrrolo[2,3-b]pyridin-6-yl)-2-fluoro-5-methylbenzamide] | 220
8 | Cc1c(-c2cc3ccc(-c4ccc(N5CCNC5=O)cc4)nc3n2CC2CC2)nn2cc(C(=O)N3CC4CCC3[C@@H]4N)cc(F)c12 (stereo partly drawn) [Example 261, 1-[4-(2-{6-[(7R)-7-Amino-2-azabicyclo[2.2.1]heptane-2-carbonyl]-4-fluoro-3-methylpyrazolo[1,5-a]pyridin-2-yl}-1-(cyclopropylmethyl)-1H-pyrrolo[2,3-b]pyridin-6-yl)phenyl]imidazolidin-2-one] | 420

Now those with a lower IC50, led by results:

Row | IC50 [nM] | Compound
9 | 60 | COc1cc(C(=O)N2CCC[C@@H](N)C2)cn2nc(-c3cc4ccc(N5CCC(S(C)(=O)=O)CC5)cc4n3CC3CC3)c(C)c12 [Example 248, (3R)-1-{2-[1-(Cyclopropylmethyl)-6-(4-methanesulfonylpiperidin-1-yl)-1H-indol-2-yl]-4-methoxy-3-methylpyrazolo[1,5-a]pyridine-6-carbonyl}piperidin-3-amine]
10 | 80 | COc1cc(C(=O)N2CCC[C@@H](N)C2)cn2nc(-c3cc4ccc(N5CCC(OC)CC5)cc4n3CC3CC3)c(C)c12 [Example 249, (3R)-1-{2-[1-(Cyclopropylmethyl)-6-(4-methoxypiperidin-1-yl)-1H-indol-2-yl]-4-methoxy-3-methylpyrazolo[1,5-a]pyridine-6-carbonyl}piperidin-3-amine]
11 | 90 | COc1cc(C(=O)N2CCC[C@@H](N)C2)cn2nc(-c3cc4ccc(N5CCC(CC(=O)N(C)C)CC5)cc4n3CC3CC3)c(C)c12 [Example 250, 2-[1-(2-{6-[(3R)-3-Aminopiperidine-1-carbonyl]-4-methoxy-3-methylpyrazolo[1,5-a]pyridin-2-yl}-1-(cyclopropylmethyl)-1H-indol-6-yl)piperidin-4-yl]-N,N-dimethylacetamide]
12 | 180 | COc1cc(C(=O)N2CCC[C@@H](N)C2)cn2nc(-c3cc4ccc(N5CCC(C(=O)N6CC(OC)C6)CC5)cc4n3CC3CC3)c(C)c12 [Example 251, (3R)-1-{2-[1-(Cyclopropylmethyl)-6-[4-(3-methoxyazetidine-1-carbonyl)piperidin-1-yl]-1H-indol-2-yl]-4-methoxy-3-methylpyrazolo[1,5-a]pyridine-6-carbonyl}piperidin-3-amine]
13 | 60 | Cc1c(-c2cc3ccc(-c4ccccc4N4CCNC4=O)nc3n2CC2CC2)nn2cc(C(=O)N3CC4CCC3[C@@H]4N)cc(F)c12 (stereo partly drawn) [Example 257, 1-[2-(2-{6-[(7R)-7-Amino-2-azabicyclo[2.2.1]heptane-2-carbonyl]-4-fluoro-3-methylpyrazolo[1,5-a]pyridin-2-yl}-1-(cyclopropylmethyl)-1H-pyrrolo[2,3-b]pyridin-6-yl)phenyl]imidazolidin-2-one]
14 | 20 | Cc1c(O)cccc1-c1ccc2cc(-c3nn4cc(C(=O)N5CC6CCC5[C@@H]6N)cc(F)c4c3C)n(CC3CC3)c2n1 (stereo partly drawn) [Example 259, 3-(2-{6-[(7R)-7-Amino-2-azabicyclo[2.2.1]heptane-2-carbonyl]-4-fluoro-3-methylpyrazolo[1,5-a]pyridin-2-yl}-1-(cyclopropylmethyl)-1H-pyrrolo[2,3-b]pyridin-6-yl)-2-methylphenol]
15 | 120 | Cc1cc(-c2ccc3cc(-c4nn5cc(C(=O)N6CC7CCC6[C@@H]7N)cc(F)c5c4C)n(CC4CC4)c3n2)ccc1C(N)=O (stereo partly drawn) [Example 262, 4-(2-{6-[(7R)-7-Amino-2-azabicyclo[2.2.1]heptane-2-carbonyl]-4-fluoro-3-methylpyrazolo[1,5-a]pyridin-2-yl}-1-(cyclopropylmethyl)-1H-pyrrolo[2,3-b]pyridin-6-yl)-2-methylbenzamide]
16 | 90 | Cc1c(-c2cc3ccc(-c4ccc(C(N)=O)cc4)nc3n2CC2CC2)nn2cc(C(=O)N3CC4CCC3[C@@H]4N)cc(F)c12 (stereo partly drawn) [Example 263, 4-(2-{6-[(7R)-7-Amino-2-azabicyclo[2.2.1]heptane-2-carbonyl]-4-fluoro-3-methylpyrazolo[1,5-a]pyridin-2-yl}-1-(cyclopropylmethyl)-1H-pyrrolo[2,3-b]pyridin-6-yl)benzamide]
17 | 10 | CNC(=O)c1ccc(-c2ccc3cc(-c4nn5cc(C(=O)N6CC7CCC6[C@@H]7N)cc(F)c5c4C)n(CC4CC4)c3n2)cn1 (stereo partly drawn) [Example 264, 5-(2-{6-[(7R)-7-Amino-2-azabicyclo[2.2.1]heptane-2-carbonyl]-4-fluoro-3-methylpyrazolo[1,5-a]pyridin-2-yl}-1-(cyclopropylmethyl)-1H-pyrrolo[2,3-b]pyridin-6-yl)-N-methylpyridine-2-carboxamide]
